Data taken from patent publication US4581356A, “Triazine derivatives, and pharmaceutical compositions comprising the same” (Fujisawa Pharmaceutical Co., Ltd., priority 1983, dated 1986).

Tests used:
[1] = system: platelet aggregation (ADP as inducer); assay: Inhibition of ADP-induced platelet aggregation in platelet rich plasma; type: cell-based; settings: Oryctolagus cuniculus, rabbit PRP, 37° C., ADP 2.5 μM, read-out: ID50 ADP
Description: (§1) Platelet rich plasma (PRP) which contains 6.5-7.5×10^8 platelet/ml was prepared from rabbit blood. To the 200 μl of PRP, 5 μl of calcium chloride (1 mM) and 50 μl of pH 7.4 Tris-acetate solution (5 mM) containing 120 mM NaCl and test compound were added successively, and then stirred for 2 min. at 37° C. To the solution, 5 μl of adenosine diphosphate (ADP) (2.5 μM) or collagen (2.5 μg/ml) was added as an aggregation inducer. Aggregation was measured by using an aggregometer (NKK HEMA TRACER 1).

[2] = system: platelet aggregation (collagen as inducer); assay: Inhibition of collagen-induced platelet aggregation in platelet rich plasma; type: cell-based; settings: Oryctolagus cuniculus, rabbit PRP, 37° C., collagen 2.5 μg/ml, read-out: ID50 Collagen
Description: as §1

[3] = system: blood pressure; assay: Antihypertensive activity in uninephrectomized DOCA/saline hypertensive rats (mean arterial pressure); type: in vivo, male Wister rats; settings: orally, DOCA rats
Description: Five-week old male Wister rats were uninephrectomized under anesthesia. Deoxycorticosterone acetate (DOCA) (30 mg/kg), suspended in peanut oil, was injected subcutaneously twice a week and 1% saline was substituted for the drinking water. Animals with mean blood pressure 150-200 mmHg were used for experiment between 5 and 7 weeks after surgery.
The test compounds were administered intraperitonealy or orally. Blood pressure was measured at the femoral artery by means of a pressure transducer and recorded as electrically integrated values of mean arterial pressure.

[4] = system: ulcers (stomach); assay: Antiulcer activity: inhibition of ulcer area in rats immobilized in water bath; type: in vivo, Sprague-Dawley rats; settings: orally, 7 hours
Description: Sprague-Dawley rats weighing about 200 g were used. Each animal was immobilized in a small cage and put in a water bath allowing to respire. The temperature of the water bath kept at 22° C. The test compound was administered orally just before the immobilization. Seven hours later, the animals were sacrificed and their stomachs were removed. The stomach was then fixed with 2% formalin. The area of ulcers was measured for each animal. The mean area (mm^2) in the test animals was compared with that in the control animals and inhibition effect (%) were calculated.

IC50 [1] [nM]	IC50 [2] [nM]	Compound	Effect Max (mean ratio of maximum decrease of blood pressure) ([3]; 1 mg/kg (dose b)) [%]	Effect (inhibition of ulcer area) ([4]; 10 mg/kg (dose c)) [%]	Effect (inhibition of ulcer area) ([4]; 32 mg/kg (dose d)) [%]	Effect Max (mean ratio of maximum decrease of blood pressure) ([3]; 0.1 mg/kg (dose a)) [%]
1400	540	CC(=O)N1CCCc2cc(C3=NNC(=O)NC3C)ccc21 (stereo not drawn) [Example 10 - (5), 6-(1-acetyl-1,2,3,4-tetrahydroquinolin-6-yl)-5-methyl-4,5-dihydro-1,2,4-triazin-3(2H)-one]	40	–	–	–
56000	22000	CC1NC(=O)NN=C1c1ccc2c(c1)NCCC2 (stereo not drawn) [Example 11 - (4), 6-(1,2,3,4-Tetrahydroquinolin-7-yl)-5-methyl-4,5-dihydro-1,2,4-triazin-3(2H)-one]	–	–	–	–
160	34	CC1NC(=O)NN=C1c1ccc2c(c1)CCCN2C(=O)C1CC1 (stereo not drawn) [Example 13, 6-(1-cyclopropanecarbonyl-1,2,3,4-tetrahydroquinolin-6-yl)-5-methyl-4,5-dihydro-1,2,4-triazin-3(2H)-one]	–	–	–	–
360	240	CN1C(=O)CCc2cc(C3=NNC(=O)NC3)ccc21 [Example 8 - (4), 6-(1-methyl-2-oxo-1,2,3,4-tetrahydroquinolin-6-yl)-4,5-dihydro-1,2,4-triazin-3(2H)-one]	49	68.0	80.0	15
5800	2000	CC1NC(=O)NN=C1c1ccc2c(c1)CCCN2C (stereo not drawn) [Example 15, 6-(1-methyl-1,2,3,4-tetrahydroquinolin-6-yl)-5-methyl-4,5-dihydro-1,2,4-triazin-3(2H)-one]	68	–	–	–
4600	2700	CN1C(=O)Cc2cc(C3=NNC(=O)NC3)ccc21 [Example 9 - (4), 6-(1-Methyl-2-indolinon-5-yl)-4,5-dihydro-1,2,4-triazin-3(2H)-one]	–	–	–	–
1300	470	CC1NC(=O)NN=C1c1ccc2c(c1)CCCN2 (stereo not drawn) [Example 10 - (6), 6-(1,2,3,4-tetrahydroquinolin-6-yl)-5-methyl-4,5-dihydro-1,2,4-triazin-3(2H)-one]	57	–	–	33
67	48	CC1NC(=O)NN=C1c1ccc2c(ccc(=O)n2C)c1 (stereo not drawn) [Example 12 - (3), 6-(1-Methyl-2-oxo-1,2-dihydroquinolin-6-yl)-5-methyl-4,5-dihydro-1,2,4-triazin-3(2H)-one]	58	–	–	40
250	81	CC1NC(=O)NN=C1c1ccc2c(c1)CCCN2C(=O)C1CCC1 (stereo not drawn) [Example 14, 6-(1-Cyclobutanecarbonyl-1,2,3,4-tetrahydroquinolin-6-yl)-5-methyl-4,5-dihydro-1,2,4-triazin-3(2H)-one]	–	–	–	–
3700	1900	CC(=O)N1CCCc2ccc(C3=NNC(=O)NC3C)cc21 (stereo not drawn) [Example 11 - (3), 6-(1-Acetyl-1,2,3,4-tetrahydroquinolin-7-yl)-5-methyl-4,5-dihydro-1,2,4-triazin-3(2H)-one]	–	–	–	–
